Reference: patent US9765074B2, “Inhibitors of the renal outer medullary potassium channel” (Merck Sharp & Dohme Corp., priority 2013, dated 2017)

Molecular target: T1, hROMK (hKir1.1) (Homo sapiens, UniProt P48048)
T1 construct: expressed in transfected cells
T1 sequence (P48048 1-391): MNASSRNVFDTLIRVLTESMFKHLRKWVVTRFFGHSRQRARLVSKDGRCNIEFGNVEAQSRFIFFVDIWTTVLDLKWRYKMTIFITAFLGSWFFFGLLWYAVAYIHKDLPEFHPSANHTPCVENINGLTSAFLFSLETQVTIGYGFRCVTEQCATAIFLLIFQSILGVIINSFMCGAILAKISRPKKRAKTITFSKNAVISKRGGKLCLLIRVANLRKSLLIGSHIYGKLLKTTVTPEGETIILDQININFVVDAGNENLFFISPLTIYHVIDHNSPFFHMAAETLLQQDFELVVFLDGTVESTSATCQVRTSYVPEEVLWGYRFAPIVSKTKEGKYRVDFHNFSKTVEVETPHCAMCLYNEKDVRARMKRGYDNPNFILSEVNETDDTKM
Assay: Thallium Flux Assay (ROMK channel functional thallium flux, FLIPR-Tetra)
Format: cell-based
Details: HEK293 cells stably expressing hROMK (hKir1.1); 30 min compound incubation
Summary of the method: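 Thallium flux read by FluxOR fluorescence ([…]) for ~10 min after adding 3 mM Tl+/0.3 mM K+ final. Stable HEK-hKir1.1 cells were dye-loaded 90 min, exposed to compound 30 min at room temperature in ouabain/probenecid buffer; IC50 relative to a 3 μM control inhibitor.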

Row | SMILES | IC50
1 | COC1CN(CCc2nnc(-n3cnnn3)cc2C)CCC12CCN(C1=C(C)C(=O)OC1)C2=O (single isomer, unassigned) [Example 259, 6-methoxy-2-(4-methyl-5-oxo-2,5-dihydrofuran-3-yl)-8-{2-[4-methyl-6-(1H-tetrazol-1-yl)pyridazin-3-yl]ethyl}-2,8-diazaspiro[4.5]decan-1-one] | 100 nM
2 | CC1=C(N2CCC3(CCN(C[C@H](O)c4ccc(-n5cnnn5)nn4)CC3F)C2=O)COC1=O (single isomer, unassigned) [Example 196] | 40 nM
3 | CC1=C(N2CCC3(CC4CCC(C3)N4C[C@H](O)c3cnc(-n4cnnn4)nc3)C2=O)COC1=O (stereo partly drawn) [Example 45, (1R,5R)-8-{(2R)-2-hydroxy-2-[2-(1H-tetrazol-1-yl)pyrimidin-5-yl]ethyl}-1′-(4-methyl-5-oxo-2,5-dihydrofuran-3-yl)-2′-oxospiro[8-azoniabicyclo[3.2.1]octane-3,3′-pyrrolidine]] | 30 nM
4 | CC1=C(N2CCC3(CC4COCC(C3)N4C[C@H](O)c3ccc(-n4cnnn4)nc3)C2=O)COC1=O (stereo partly drawn) [Example 180, 9-{(2R)-2-hydroxy-2-[6-(1H-tetrazol-1-yl)pyridin-3-yl]ethyl}-1′-(4-methyl-5-oxo-2,5-dihydrofuran-3-yl)-2′H-spiro[7-oxa-9-azabicyclo[3.3.1]nonane-3,3′-pyrrolidin]-2′-one] | 40 nM
5 | COC1CN(C2=C(C)C(=O)OC2)C(=O)C12CC1CCC(C2)N1C[C@H](O)c1ccc(-n2cnnn2)nc1 (single isomer, unassigned) [Example 108] | 40 nM
6 | CO[C@@H](CN1CCC2(CC1)CCN(C1=C(C)C(=O)OC1)C2=O)c1cnc(-n2cnnn2)cn1 [Example 283] | 60 nM
7 | CC1=C(N2C(=O)C3(CCN(C[C@@H](O)c4ccc(-n5cnnn5)nn4)CC3)CC2C)COC1=O (single isomer, unassigned) [Example 124] | 40 nM
8 | Cc1nc([C@H](O)CN2CCC3(CC2)CCN(C2=CC(=O)OC2)C3=O)ccc1-n1cnnn1 [Example 8, 8-{(2R)-2-hydroxy-2-[6-methyl-5-(1H-tetrazol-1-yl)pyridin-2-yl]ethyl}-1-oxo-2-(5-oxo-2,5-dihydrofuran-3-yl)-2-aza-8-azoniaspiro[4.5]decane] | 60 nM
9 | COC(=O)c1cc(-n2cnnn2)ncc1CCN1CCC2(CC1)CCN(C1=C(C)C(=O)OC1)C2=O [Example 254, methyl 5-(2-(2-(4-methyl-5-oxo-2,5-dihydrofuran-3-yl)-1-oxo-2,8-diazaspiro[4.5]decan-8-yl)ethyl)-2-(1H-tetrazol-1-yl)isonicotinate] | 30 nM
10 | COc1cc(-n2cnnn2)ncc1[C@H](O)CN1CCC2(CC1)CCN(C1=C(C)C(=O)OC1)C2=O [Example 94, 8-{(2S)-2-hydroxy-2-[4-methoxy-6-(1H-tetrazol-1-yl)pyridin-3-yl]ethyl}-2-(4-methyl-5-oxo-2,5-dihydrofuran-3-yl)-1-oxo-2-aza-8-azoniaspiro[4.5]decane] | 20 nM
11 | CC1=C(N2CCC3(CCN(C[C@H](F)c4ccc(-n5cnnn5)cn4)CC3)C2=O)COC1=O [Example 279, 8-{(2S)-2-fluoro-2-[5-(1H-tetrazol-1-yl)pyridin-2-yl]ethyl}-2-(4-methyl-5-oxo-2,5-dihydrofuran-3-yl)-1-oxo-2-aza-8-azoniaspiro[4.5]decane] | 20 nM
12 | CC1=C(N2CCC3(CCN(C[C@@H](O)c4ncc(-n5cnnn5)cc4C)CC3)C2=O)COC1=O [Example 29, 8-{(2R)-2-hydroxy-2-[3-methyl-5-(1H-tetrazol-1-yl)pyridin-2-yl]ethyl}-2-(4-methyl-5-oxo-2,5-dihydrofuran-3-yl)-1-oxo-2-aza-8-azoniaspiro[4.5]decane] | 40 nM
13 | COCC1=C(N2CCC3(CCN(C[C@H](O)c4ccc(-n5cnnn5)nn4)CC3)C2=O)COC1=O [Example 191, 8-{(2S)-2-hydroxy-2-[6-(1H-tetrazol-1-yl)pyridazin-3-yl]ethyl}-2-[4-(methoxymethyl)-5-oxo-2,5-dihydrofuran-3-yl]-2,8-diazaspiro[4.5]decan-1-one] | 70 nM
14 | COC1CN(CCc2nnc(-n3cnnn3)cc2C)CCC12CCN(C1=C(C)C(=O)OC1)C2=O (single isomer, unassigned) [Example 260, 6-methoxy-2-(4-methyl-5-oxo-2,5-dihydrofuran-3-yl)-8-{2-[4-methyl-6-(1H-tetrazol-1-yl)pyridazin-3-yl]ethyl}-2,8-diazaspiro[4.5]decan-1-one] | 120 nM

The remaining compounds from weak to strong by IC50, led by results:

Row | IC50 | SMILES
15 | 20 nM | CC1=C(N2CC(=O)C3(CCN(C[C@H](O)c4ccc(-n5cnnn5)nc4)CC3)C2=O)COC1=O [Example 97, 8-{(2R)-2-hydroxy-2-[6-(1H-tetrazol-1-yl)pyridin-3-yl]ethyl}-2-[4-methyl-5-oxo-2,5-dihydrofuran-3-yl)-1,4-dioxo-2-aza-8-azoniaspiro[4.5]decane]
16 | 20 nM | CC1OC(=O)C=C1N1C(=O)C2(CCN(C[C@H](O)c3ccc(-n4cnnn4)nc3)CC2)C[C@@H]1C (single isomer, unassigned) [Example 228]
17 | 20 nM | CC1=CN(C2=C(C)C(=O)OC2)C(=O)C12CCN(CCc1ccc(-n3cnnn3)nn1)CC2 [Example 253, 4-methyl-2-(4-methyl-5-oxo-2,5-dihydrofuran-3-yl)-1-oxo-8-{2-[6-(1H-tetrazol-1-yl)pyridazin-3-yl]ethyl}-2-aza-8-azoniaspiro[4.5]dec-3-ene]
18 | 20 nM | CC1=C(N2CCC3(CCN([C@H](CO)Cc4ccc(-n5cnnn5)nc4)CC3)C2=O)COC1=O (single isomer, unassigned) [Example 296]
19 | 20 nM | CC1=C(N2CCC3(CCN(C[C@H](O)c4nnc(-n5cnnn5)cc4C)CC3)C2=O)COC1=O [Example 121, 8-{(2S)-2-hydroxy-2-[4-methyl-6-(1H-tetrazol-1-yl)pyridazin-3-yl]ethyl}-2-(4-methyl-5-oxo-2,5-dihydrofuran-3-yl)-1-oxo-2-aza-8-azoniaspiro[4.5]decane]
20 | 10 nM | CC1CC2(CCN(C(C)(C)C(O)c3cnc(-n4cnnn4)cn3)CC2)C(=O)N1C1=CC(=O)OC1 (single isomer, unassigned) [Example 301, 8-(1-(5-(1H-tetrazol-1-yl)pyrazin-2-yl)-1-hydroxy-2-methylpropan-2-yl)-3-methyl-2-(5-oxo-2,5-dihydrofuran-3-yl)-2,8-diazaspiro[4.5]decan-1-one]
21 | 10 nM | CC1=C(N2C(=O)C3(CCN(C[C@H](O)c4ccc(-n5cnnn5)nc4)CC3)CC2C)COC1=O (single isomer, unassigned) [Example 65]
22 | 10 nM | C[C@H]1CC2(CCN(CCc3ncc(-n4cnnn4)nc3C3CC3)CC2)C(=O)N1C1=CC(=O)OC1 [Example 270, (S)-8-(2-(3-cyclopropyl-5-(1H-tetrazol-1-yl)pyrazin-2-yl)ethyl)-3-methyl-2-(5-oxo-2,5-dihydrofuran-3-yl)-2,8-diazaspiro[4.5]decan-1-one]
23 | 4 nM | CC1=C(N2CCC3(CCN([C@H](C)Cc4ccc(-n5cnnn5)nn4)CC3)C2=O)COC1=O (single isomer, unassigned) [Example 294]
24 | 4 nM | CC1=C(N2C=CC3(CCN([C@H](C)Cc4ccc(-n5cnnn5)nn4)CC3)C2=O)COC1=O (single isomer, unassigned) [Example 273]
25 | 3 nM | C[C@H]1CC2(CCN(CCc3ccc(-n4cnnn4)nn3)CC2)C(=O)N1C1=CC(=O)OC1 [Example 264, (3S)-3-methyl-2-(5-oxo-2,5-dihydrofuran-3-yl)-8-{2-[6-(1H-tetrazol-1-yl)pyridazin-3-yl]ethyl}-2,8-diazaspiro[4.5]decan-1-one]
